According to patent US5523308A, “Peptidyl heterocycles useful in the treatment of thrombin related disorders” (priority 1995, dated 1996):
Read-outs that look alike come from different tables or passages of the source.

Tests used:
Bovine type 1 trypsin = biological target: T1, Bovine type 1 trypsin (Bos taurus, UniProt P00760); experiment: Trypsin-catalyzed hydrolysis of chromogenic substrate Spectrozyme TRY (in vitro enzyme assay); assay type: biochemical; conditions: 3.2 U/ml trypsin, 0.1-0.3 mM Spectrozyme TRY; read-out: Trp IC50
T1 construct: purchased Sigma
T1 sequence (P00760 24-246): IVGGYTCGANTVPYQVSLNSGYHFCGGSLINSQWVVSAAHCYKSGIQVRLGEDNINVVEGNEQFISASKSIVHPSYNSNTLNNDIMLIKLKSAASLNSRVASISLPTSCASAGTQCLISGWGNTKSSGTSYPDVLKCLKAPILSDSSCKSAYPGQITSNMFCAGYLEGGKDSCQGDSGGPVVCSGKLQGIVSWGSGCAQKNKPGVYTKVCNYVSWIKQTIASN
Procedure: The compounds of the invention were tested for their ability to inhibit thrombin mediated hydrolysis. An in vitro enzyme assay was performed as well as an ex vivo assay. In addition, the compounds were tested in vitro for their ability to inhibit trypsin, as an indication of their selectivity.
Trypsin-catalyzed hydrolysis rates were measured using the same method as the thrombin procedure.
The compound numbers in the table correspond to the examples described hereinafter.

human alpha-thrombin = biological target: T2, human alpha-thrombin (Homo sapiens, UniProt P00734); experiment: Thrombin-catalyzed hydrolysis of chromogenic substrate Spectozyme TH (in vitro enzyme assay); assay type: biochemical; conditions: 1 nM thrombin, 37° C., pH 7.4; for IC50: 50 μM Spectozyme TH, read-out: Thr IC50
T2 construct: commercial human alpha-thrombin (American Diagnostica); purchased American Diagnostica
Procedure: Thrombin-catalyzed hydrolysis rates were measured spectrophotometrically using commercial human alpha-thrombin (American Diagnostica), a chromogenic substrate (Spectozyme® TH (H-D-HHT-Ala-Arg-pNA.2AcOH), American Diagnostica) in aqueous buffer (10 mM Tris, 10 mM Hepes, 150 mM NaCl, 0.1% PEG; pH 7.4), and a microplate reader (Molecular Devices). Changes in absorbance at 405 nm were monitored (Softmax, Molecular Devices), upon addition of enzyme, both with and without inhibitor present at 37° C. over 30 minutes. […] Michaelis-Menton kinetics were applied to the initial reaction slopes. […] Michaelis-Menton kinetics were applied to the initial reaction slopes using the program K.Cat (Bio Metallics Inc.).

[1] = rat, in vivo, iv
Procedure: (§1) An ex vivo assay was conducted to determine the duration of action of the compounds of Formula I. For this i.v. assay male rats (Long Evans, 350-500 g) were implanted with a teflon cannulae via the femoral artery while under anesthesia (pentobarbital i.p., 35 mg/kg). […] The animals were allowed to recover for at least 24 h after the surgical procedure.
(§2) The test compound was dispersed in water and delivered to the animal (0.25 mL) via the femoral vein. […] A plasma sample was obtained by centrifuging the blood at 10,000 rpm for 5 min. This sample is analyzed for thrombin inhibition using the chromogenic assay, described below.
(§3) Datum was collected over a 30 min period and the initial rate of substrate hydrolysis (V0 (mOD/min)) was calculated with an analysis program (Softmax, Molecular Devices).
(§4) The time to half plasma elimination (t 1/2) was calculated from the slope of Vo vs. time, using the following equation: t 1/2=-1.6 slope.

[2] = Ex vivo bioavailability assay, i.v. and p.o. dosing, thrombin inhibition in rat plasma; conditions: male rats, p.o. vs i.v., extrapolated drug in plasma vs. time
Procedure: Bioavailability was determined by an ex vivo assay which incorporated hydrolysis rates from drug administered both i.v. and p.o. In this assay male rats were prepared as described above with a teflon tube implanted in their femoral artery. […] The test compound was dispersed in water (0.3-3.0 mg/mL final conc.) and delivered to the animals (0.25 mL) either i.v. or p.o..
A standard curve was generated by adding of drug or vehicle (100 μL) to whole blood (900 μL) followed by incubating (5 min) and centrifuging to obtain plasma. The percentage of thrombin inhibition was calculated by comparing the V0 of the vehicle to that of the drug treated samples. Datum from several runs were normalized with a statistical package (SAS) to generate a standard curve.
The percentage of thrombin inhibition in the treated animals was calculated by comparing the V0 prior to treatment with the V0 obtained from samples collected after treatment. The percent inhibition was applied to the standard curve (generated above) using the statistical package (SAS) and the quantity of drug in the sample was extrapolated.
Bioavailability (Bioavail.) was calculated from the plots of the extrapolated drug in sample vs. time for both i.v. and p.o. administration using the following equation:
%Bioavail. =(i.v. dose administered/p.o. dose administered)×(area under p.o. curve/area under curve i.v.)

[3] = Ex vivo i.v. assay for duration of action: time to half plasma elimination from thrombin inhibition in rat plasma; conditions: male Long Evans rats, i.v. via femoral vein, from slope of Vo vs. time
Procedure: as §1, §2, §3, §4

trypsin = conditions: pancreatic agents quoted for comparison; read-out: IC50 (trypsin inhibitors used clinically); cited from earlier work

SMILES | IC50 (Bovine type 1 trypsin) [nM] | IC50 (human alpha-thrombin) [nM] | t1/2 (time to half plasma elimination) [1] [min] | further results
CNC(Cc1ccccc1)C(=O)N1CCCC1C(=O)NC(CCCNC(=N)N)C(=O)c1nc2ccccc2[nH]1 (stereo not drawn) [Compound 21] | 51 | 24 | 5 | 
CCOC(=O)c1csc(C(=O)[C@H](CCCNC(=N)N)NC(=O)[C@@H]2CCCN2C(=O)[C@@H](Cc2ccccc2)NC)n1 [Compound 19, N-METHYL-D-PHENYLALANYL-N-[4-[(AMINOIMINOMETHYL)AMINO]-1S-[(4-ETHOXYCARBONY LTHIAZOL-2-YL)CARBONYL]BUTYL]-L-PROLINAMIDE] | 5 | 26 | 14 | 
CN[C@H](Cc1ccccc1)C(=O)N1CCC[C@H]1C(=O)N[C@@H](CCCNC(=N)N)C(=O)c1nc2ccc(O)cc2s1 [Compound 25, N-METHYL-D-PHENYLALANYL-N-[4-[(AMINOIMINOMETHYL)AMINO]-1S-[(6-HYDROXYBENXOT HIAZOL-2-YL)CARBONYL]BUTYL]-L-PROLINAMIDE] |  |  |  | t1/2 (time to half plasma elimination) [3]: 14 min
CN[C@H](Cc1c(F)c(F)c(F)c(F)c1F)C(=O)N1CCC[C@H]1C(=O)N[C@@H](CCCNC(=N)N)C(=O)c1nc2ccccc2s1 [Compound 30] | 2 | 29 | 6 | 
CN(C)C(=O)COC(=O)Cc1ccc(OC(=O)c2ccc(NC(=N)N)cc2)cc1 [camostat mesilate] |  |  |  | IC50 (trypsin): 10 nM
N=C(N)c1ccc2cc(OC(=O)c3ccc(N=C(N)N)cc3)ccc2c1 [nafamostat] |  |  |  | IC50 (trypsin): 13 nM
CC(=O)N[C@H](Cc1ccccc1)C(=O)N1CCC[C@H]1C(=O)N[C@@H](CCCNC(=N)N)C(=O)c1nc2ccccc2s1.O=C(O)C(F)(F)F [Compound 35] | 2 | 201 | 11 | 

More lines, main results first:

IC50 (Bovine type 1 trypsin) [nM] | IC50 (human alpha-thrombin) [nM] | t1/2 (time to half plasma elimination) [1] [min] | SMILES | further results
 |  | 19 | CN[C@H](Cc1ccccc1)C(=O)N1CCC[C@H]1C(=O)N[C@@H](CCCNC(=N)N)C(=O)c1nc2ccccc2s1 [Compound 1, N-METHYL-D-PHENYLALANYL-N-[4-[(AMINOIMINOMETHYL)AMINO]-1S-[(BENXOTHIAZOL-2- YL)CARBONYL]BUTYL]-L-PROLINAMIDE] | Bioavail, [2]: 1.2%; Ki (human alpha-thrombin; 5-100 μM Spectozyme TH, read-out: Thr Ki (listed in place of the IC50)): 0.23 nM
7 | 17 | 17 | CN[C@H](Cc1ccccc1)C(=O)N1CCC[C@H]1C(=O)N[C@@H](CCCNC(=N)N)C(=O)c1nc2c(s1)CCCC2 [Compound 51, N-METHYL-D-PHENYLALANYL-N-[4-[(AMINOIMINOMETHYL)AMINO]-1S-[(4,5,6,7-TETRAHY DROBENZOTHIAZOL-2-YL)CARBONYL]BUTYL]-L-PROLINAMIDE] | 
2 |  | 14 | CN[C@H](CC1CCCCC1)C(=O)N1CCC[C@H]1C(=O)N[C@@H](CCCNC(=N)N)C(=O)c1nc2ccccc2s1 [Compound 29, N-METHYL-D-CYOLOHEXYLALANYL-N-[4-[(AMINOIMINOMETHYL)AMINO]-1S-[(BENXOTHIAZO L-2-YL)CARBONYL]BUTYL]-L-PROLINAMIDE] | 
3 |  |  | CNC(C(=O)N1CCC[C@H]1C(=O)N[C@@H](CCCNC(=N)N)C(=O)c1nc2ccccc2s1)c1ccccc1 (single isomer, unassigned) [Compound 34] | t1/2 (time to half plasma elimination) [3]: 26 min
13 | 110 | 15 | CN[C@H](Cc1ccccc1)C(=O)N1CCC[C@H]1C(=O)N[C@@H](CCCNC(=N)N)C(=O)c1nc(C(=O)O)cs1 [Compound 54, N-METHYL-D-PHENYLALANYL-N-[4-[(AMINOIMINOMETHYL)AMINO]-1S-[(4-CARBOXYTHIAZO L-2-YL)CARBONYL]BUTYL]-L-PROLINAMIDE] | 
6 | 19 | 16 | CNC(Cc1ccccc1)C(=O)N1CCCC1C(=O)NC(CCCNC(=N)N)C(=O)c1nccs1 (stereo not drawn) [Compound 4] | 
2 |  | 19 | CN[C@H](Cc1ccc(F)cc1)C(=O)N1CCC[C@H]1C(=O)N[C@@H](CCCNC(=N)N)C(=O)c1nc2ccccc2s1 [Compound 32, N-METHYL-D-(4-FLUOROPHENYL)ALANYL-N-[4-[(AMINOIMINOMETHYL)AMINO]-1S-[(BENXO THIAZOL-2-YL)CARBONYL]BUTYL]-L-PROLINAMIDE] | 
